Holding throughout (format): binding
The target in assay [1] is T1, wild-type aprataxin FHA domain (Homo sapiens, UniProt Q7Z2E3).
T1 construct: aprataxin residues 1–105; GST (pGEX-6P-1) (N, cleaved yes); made in house; host or cells: Escherichia coli BL21 (DE3)
The experiment in a line: ITC of wild-type aprataxin FHA domain with XRCC1 and XRCC4 phosphopeptides. Conditions: 22 °C, 50 mM HEPES pH 7.5, 150 mM NaCl, 5 mM β-mercaptoethanol, peptide in syringe, XRCC1 peptides 1 mM into 100 μM protein, XRCC4 peptides 300 μM into 30 μM protein, single-site model, representative of triplicate. An excerpt: (§1) The genes for aprataxin residues 1–105 and APLF residues 1–106 were amplified using primer sets which incorporated 5′ BamHI and 3′ XhoI sites. PCR products and pGEX-6P-1 vector were digested with BamHI and XhoI and religated. All point mutations were generated using a QuickChange Site-Directed Mutagenesis Kit (Stratagene) following the manufacturer's recommended protocol.
(§2) For expression, the pGEX-6P-1/aprataxin-FHA constructs were transformed into Escherichia coli strain BL21 (DE3) and the pGEX-6P-1/APLF-FHA constructs transformed into the strain Rosetta2 (DE3). Cells were grown in LB at 37 °C to an A600 of 0.5, induced with 0.4 mM isopropyl 1-thio-β-D-galactopyranoside and incubated at 18 °C for a further 16 h before harvesting. Cells were lysed by sonication and clarified by centrifugation (20,000 × g × 30 min). The supernatant was applied to a glutathione-4B resin (Amersham) and cleaved from the resin with rhinovirus 3C protease. Proteins were purified further by gel-filtration chromatography on a Superdex 75 matrix in 20 mM Tris pH 7.5, 150 mM NaCl, 5 mM DTT. Selenomethionine-labelled APLF L91 M protein was expressed in Rosetta2 (DE3) cells cultured in SelenoMet base media and nutrients supplemented with seleno-methionine solution (Molecular Dimensions Ltd.) and purified as the wild-type protein.
(§3) Phosphopeptides based on the XRCC1 sequence 515-YAGSTDENTDSEEHQ-529 and the XRCC4 sequence 229-YDESTDEES-237 were synthesised with amidated C-termini to avoid potential end-effects of a free carboxy-terminus by Dr. W. Mawby (University of Bristol), purified by HPLC and characterised by mass spectrometry. FHA-phosphopeptide binding was quantified by isothermal titration calorimetry using a Microcal Omega VP-ITC calorimeter (MicroCal Inc., Northampton, MA). Protein was dialysed against ITC buffer (50 mM HEPES pH 7.5, 150 mM NaCl, 5 mM β-mercaptoethanol) and peptides were dissolved in the dialysis buffer. Experiments were carried out at 22 °C and involved 30 successive 10 μl injections of peptide solution into a sample cell containing protein solution. Titrations with XRCC1 peptides used peptide at 1 mM and protein at 100 μM and titrations with XRCC4 peptides used peptide at 300 μm and protein at 30 μM. Heats of dilution were subtracted and binding isotherms were plotted and analysed with MicroCal origin version 7.0, assuming a single-site binding model.

Assay [2] concerns the target T2, aprataxin FHA domain (Homo sapiens, UniProt Q7Z2E3).
T2 construct: aprataxin residues 1–105; GST (pGEX-6P-1) (N, cleaved yes); made in house; host or cells: Escherichia coli BL21 (DE3)
The experiment in a line: NMR (1H-SOFAST-HMQC) titrations of aprataxin FHA domain with XRCC1 phosphopeptides. Conditions: NMR titration, 22 °C. The method, then:
NMR experiments were carried out at 22 °C on Bruker Avance II+ 600 MHz and Avance III 700 MHz spectrometers, each equipped with a cryogenic triple-resonance probe. Protein and peptides were prepared in NMR buffer (20 mM Na Acetate pH 5.8, 50 mM NaCl, 2 mM DTT). Three-dimensional HNCA, HNCO, HNCACB and CBCA(CO)NH experiments were performed to obtain backbone assignments. NMR titration experiments were carried out by adding the unlabelled XRCC1 peptides to ^15N-labeled aprataxin FHA domain. The initial protein concentration was 92 μM and volumes of 2 mM stock solution of peptide were added until the protein:peptide ratio was 1:4. ^1H-SOFAST-HMQC [36] spectra were measured after each titration step. All spectra were processed using nmrPipe, and analysed using CARA/NEASY [38]. The weighted chemical shift change (in ppm units) of each amide proton (ΔδHN) and nitrogen (ΔδN) was calculated according to the equation: Δδtotal = [(ΔδHNWHN)^2 + (ΔδNWN)^2]^1/2 with WHN = 1 and WN = 0.154 [39]. Weighted chemical shifts for residues D37, V45, Q46, V61 and V63 were plotted against peptide concentration to determine individual Kds and averaged to determine the apparent Kd.

Assay [3] has as its target T3, K38A Mutant of aprataxin FHA domain (Homo sapiens, UniProt Q7Z2E3, K52A).
T3 construct: aprataxin residues 1–105; GST (pGEX-6P-1) (N, cleaved yes); made in house; host or cells: Escherichia coli BL21 (DE3)
Kind of assay: ITC of K38A mutant of aprataxin FHA domain with XRCC1 and XRCC4 phosphopeptides. Particulars: 22 °C, 50 mM HEPES pH 7.5, 150 mM NaCl, 5 mM β-mercaptoethanol, single-site model.
Description: as §1, §2, §3

For assay [4], the target named is T4, R42A Mutant of aprataxin FHA domain (Homo sapiens, UniProt Q7Z2E3, R56A).
T4 construct: aprataxin residues 1–105; GST (pGEX-6P-1) (N, cleaved yes); made in house; host or cells: Escherichia coli BL21 (DE3)
T4 sequence (Q7Z2E3 15-119 R56A): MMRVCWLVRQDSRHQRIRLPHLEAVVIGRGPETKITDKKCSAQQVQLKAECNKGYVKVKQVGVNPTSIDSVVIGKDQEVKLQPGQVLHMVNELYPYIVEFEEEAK
The experiment in a line: ITC of R42A mutant of aprataxin FHA domain with XRCC1 and XRCC4 phosphopeptides. Conditions: 22 °C, 50 mM HEPES pH 7.5, 150 mM NaCl, 5 mM β-mercaptoethanol, single-site model.
Description: as §1, §2, §3

Where [5] appears, read: 20 mM Na Acetate pH 5.8, 50 mM NaCl, 2 mM DTT, 92 µM 15N aprataxin FHA, 2 mM peptide stock, read-out: Kd from weighted chemical shift of residue Asp37.
Where [6] appears, read: pH 5.8, 92 µM aprataxin FHA, read-out: Kd from weighted chemical shift of residue Gln46.
Setting [7] is: pH 5.8, 92 µM aprataxin FHA, read-out: Kd from weighted chemical shift of residue Val45.
The mark [8] stands for this setting: pH 5.8, 92 µM aprataxin FHA, read-out: Kd from weighted chemical shift of residue Val61.
Where [9] appears, read: pH 5.8, 92 µM aprataxin FHA, read-out: Kd from weighted chemical shift of residue Val63.

Like-named read-outs stand apart in the source and are kept apart here. Peptide text beside a SMILES is read from it.

T2 sequence (Q7Z2E3 15-119): as the sequence (Q7Z2E3 15-119 R56A) above, with A42R counted along it
T1 sequence (Q7Z2E3 15-119): as the sequence (Q7Z2E3 15-119 R56A) above, with A42R counted along it
T3 sequence (Q7Z2E3 15-119 K52A): as the sequence (Q7Z2E3 15-119 R56A) above, with K38A, A42R counted along it

On to `C[C@H](NC(=O)[C@@H](N)Cc1ccc(O)cc1)C(=O)NCC(=O)N[C@@H](CO)C(=O)N[C@H](C(=O)N[C@@H](CC(=O)O)C(=O)N[C@@H](CCC(=O)O)C(=O)N[C@@H](CC(N)=O)C(=O)N[C@H](C(=O)N[C@@H](CC(=O)O)C(=O)N[C@@H](CO)C(=O)N[C@@H](CCC(=O)O)C(=O)N[C@@H](CCC(=O)O)C(=O)N[C@@H](Cc1c[nH]cn1)C(=O)N[C@@H](CCC(N)=O)C(N)=O)[C@@H](C)OP(=O)(O)O)[C@@H](C)O` [YAGSTDENpTDSEEHQ] (HELM PEPTIDE1{Y.A.G.S.T.D.E.N.[C[C@@H](OP(=O)(O)O)[C@H](N[*:1])C(=O)[*:2]].D.S.E.E.H.Q.[am]}$$$$V2.0), for which the Kd was 42 ± 3.8 µM in assay [1]; 7.6 µM in assay [2] (setting [5]); 5.9 µM in assay [2] (setting [6]); 9.8 µM in assay [2] (setting [7]); 4 µM in assay [2] (setting [8]); 7.9 µM in assay [2] (setting [9]). In assay [2] (pH 5.8, tighter binders not well defined due to high protein concentration, read-out: overall apparent affinity (Kdapp) estimated from NMR titrations), the Kd is 7 µM.
As to `C[C@H](NC(=O)[C@@H](N)Cc1ccc(O)cc1)C(=O)NCC(=O)N[C@@H](CO)C(=O)N[C@H](C(=O)N[C@@H](CC(=O)O)C(=O)N[C@@H](CCC(=O)O)C(=O)N[C@@H](CC(N)=O)C(=O)N[C@H](C(=O)N[C@@H](CC(=O)O)C(=O)N[C@@H](COP(=O)(O)O)C(=O)N[C@@H](CCC(=O)O)C(=O)N[C@@H](CCC(=O)O)C(=O)N[C@@H](Cc1c[nH]cn1)C(=O)N[C@@H](CCC(N)=O)C(N)=O)[C@@H](C)OP(=O)(O)O)[C@@H](C)O` [YAGSTDENpTDpSEEHQ] (HELM PEPTIDE1{Y.A.G.S.T.D.E.N.[C[C@@H](OP(=O)(O)O)[C@H](N[*:1])C(=O)[*:2]].D.[O=C([C@H](COP(=O)(O)O)N[*:1])[*:2]].E.E.H.Q.[am]}$$$$V2.0), in assay [1], the Kd was determined as 33 ± 0.87 µM.
`C[C@H](NC(=O)[C@@H](N)Cc1ccc(O)cc1)C(=O)NCC(=O)N[C@@H](CO)C(=O)N[C@H](C(=O)N[C@@H](CC(=O)O)C(=O)N[C@@H](CCC(=O)O)C(=O)N[C@@H](CC(N)=O)C(=O)N[C@H](C(=O)N[C@@H](CC(=O)O)C(=O)N[C@@H](CO)C(=O)N[C@@H](CCC(=O)O)C(=O)N[C@@H](CCC(=O)O)C(=O)N[C@@H](Cc1c[nH]cn1)C(=O)N[C@@H](CCC(N)=O)C(N)=O)[C@@H](C)O)[C@@H](C)OP(=O)(O)O` [YAGSpTDENTDSEEHQ] (HELM PEPTIDE1{Y.A.G.S.[C[C@@H](OP(=O)(O)O)[C@H](N[*:1])C(=O)[*:2]].D.E.N.T.D.S.E.E.H.Q.[am]}$$$$V2.0): the Kd in assay [3] was 46 ± 2 µM; in assay [4], ≥ 100 µM; in assay [1], 17 ± 0.4 µM; in assay [2] (setting [5]), 9.6 µM; in assay [2] (setting [6]), 5.3 µM; in assay [2] (setting [7]), 8.1 µM. Further, the figures for the Kd in assay [2] (setting [8]) and in assay [2] (setting [9]) were 4.2 µM and 6.8 µM, respectively.
On to `C[C@H](NC(=O)[C@@H](N)Cc1ccc(O)cc1)C(=O)NCC(=O)N[C@@H](COP(=O)(O)O)C(=O)N[C@H](C(=O)N[C@@H](CC(=O)O)C(=O)N[C@@H](CCC(=O)O)C(=O)N[C@@H](CC(N)=O)C(=O)N[C@H](C(=O)N[C@@H](CC(=O)O)C(=O)N[C@@H](CO)C(=O)N[C@@H](CCC(=O)O)C(=O)N[C@@H](CCC(=O)O)C(=O)N[C@@H](Cc1c[nH]cn1)C(=O)N[C@@H](CCC(N)=O)C(N)=O)[C@@H](C)O)[C@@H](C)OP(=O)(O)O` [YAGpSpTDENTDSEEHQ] (HELM PEPTIDE1{Y.A.G.[O=C([C@H](COP(=O)(O)O)N[*:1])[*:2]].[C[C@@H](OP(=O)(O)O)[C@H](N[*:1])C(=O)[*:2]].D.E.N.T.D.S.E.E.H.Q.[am]}$$$$V2.0), for which the Kd in assay [3] came to 12.8 ± 0.7 µM; in assay [4], 53.2 ± 5.8 µM; in assay [1], 1.5 ± 0.06 µM; in assay [2] (setting [5]), 2 µM; in assay [2] (setting [6]), 1.7 µM; in assay [2] (setting [7]), 2.5 µM. The Kd in assay [2] (setting [8]) stood at 1.6 µM; in assay [2] (setting [9]), 2.1 µM.

These data come from paper PMC4655838, “Versatility in phospho-dependent molecular recognition of the XRCC1 and XRCC4 DNA-damage scaffolds by aprataxin-family FHA domains” (DNA Repair, 2015).
